What all share (type): functional
Experiment [1] deals with Staphylococcus aureus. Kind of experiment: Antibacterial activity against Staphylococcus aureus UC 9218.
Experiment [2] relates to Staphylococcus aureus. Kind of experiment: Antibacterial activity against Staphylococcus aureus UC 9218 in presence of 10% human serum.
Experiment [3] relates to Enterococcus faecalis. In words: Antibacterial activity against Enterococcus faecalis UC 9217.
For experiment [4], the system named is Staphylococcus epidermidis. In words: Antibacterial activity against Staphylococcus epidermidis UC 12084.
In experiment [5] the test system is Streptococcus pneumoniae. In words: Antibacterial activity against Streptococcus pneumoniae UC 9912.
In experiment [6] the test system is Haemophilus influenzae. Kind of experiment: Antibacterial activity against Haemophilus influenzae 30063.
Experiment [7] has as its system Staphylococcus aureus. In words: Antibacterial activity against Staphylococcus aureus UC 9218 in presence of 5% human serum.

Each structure is given as a SMILES string. Values after ≈ are worked out from the molar mass of the structure shown.

With `N#Cc1ccc(NC(=O)c2cc(-c3ccccc3)on2)c(C(=O)O)c1`, the MIC came out at 0.25 µg/mL (≈ 0.75 µM) in experiment [1] and 8 µg/mL in experiment [2].
Regarding `N#Cc1ccc(NC(=O)c2coc(-c3ccccc3)n2)c(C(=O)O)c1`, the MIC in experiment [1] was 64 µg/mL (≈ 192 µM); in experiment [2] it was above 128 µg/mL.
As for `N#Cc1ccc(NC(=O)c2nc(-c3ccccc3)cs2)c(C(=O)O)c1`, the MIC in experiment [1] came to 8 µg/mL (≈ 22.9 µM); in experiment [2] it was 32 µg/mL.
On the same counts, the results for `N#Cc1ccc(NC(=O)c2ncc(-c3ccccc3)o2)c(C(=O)O)c1` are 0.5 µg/mL (≈ 1.5 µM) and 8 µg/mL.
For `N#Cc1ccc(NC(=O)c2cc(-c3ccccc3)no2)c(C(=O)O)c1`, the MIC turned out to be 0.5 µg/mL (≈ 1.5 µM) in experiment [1] and 8 µg/mL in experiment [2].
`CCCN(CCC)S(=O)(=O)c1ccc(C(=O)Oc2cc3ccccc3cc2C(=O)Oc2cc3ccccc3cc2C(=O)O)cc1`: the MIC in experiment [1] is 16 µg/mL (≈ 25.6 µM); in experiment [3] it was 32 µg/mL (≈ 51.1 µM); in experiment [4] it was 16 µg/mL (≈ 25.6 µM); in experiment [5], 8 µg/mL (≈ 12.8 µM); in experiment [6], above 128 µg/mL.
For `N#Cc1ccc(NC(=O)c2noc(-c3ccccc3)n2)c(C(=O)O)c1`, the MIC in experiment [1] was found to be 4 µg/mL (≈ 12 µM); in experiment [2], 32 µg/mL.
For `CCOc1nc(SCc2ccccc2)ncc1C(=O)Nc1ccc(C#N)cc1C(=O)O`, the MIC was 8 µg/mL (≈ 18.4 µM) in experiment [1] and above 128 µg/mL in experiment [2].
Taken in the same sequence, the figures for `Cc1nn(-c2ccccc2)nc1C(=O)Nc1ccc(C#N)cc1C(=O)O` were 4 µg/mL (≈ 11.5 µM) and above 128 µg/mL.
For `N#Cc1ccc(NC(=O)c2noc3ccccc23)c(C(=O)O)c1`, the MIC in experiment [1] is 0.5 µg/mL (≈ 1.63 µM); in experiment [2], 16 µg/mL.
Consider `N#Cc1ccc(NC(=O)c2cc3cccnc3s2)c(C(=O)O)c1`, for which the MIC was 4 µg/mL (≈ 12.4 µM) in experiment [1] and 32 µg/mL in experiment [2].
On the same counts, the results for `Cc1coc2cnc(C(=O)Nc3ccc(C#N)cc3C(=O)O)cc12` are 16 µg/mL (≈ 49.8 µM) and 64 µg/mL.
In the case of `O=C(Nc1ccc(Br)cc1C(=O)O)c1ccc(S(=O)(=O)N2CCc3cc(Cl)ccc32)cc1`, the MIC in experiment [1] was 0.5 µg/mL (≈ 0.933 µM); in experiment [3], 32 µg/mL (≈ 59.7 µM); in experiment [4] it was 4 µg/mL (≈ 7.47 µM); in experiment [5], 4 µg/mL (≈ 7.47 µM); in experiment [6], 128 µg/mL (≈ 239 µM); in experiment [7] it was above 128 µg/mL.
In the case of `N#Cc1ccc(NC(=O)c2cc3cc(-c4ccccc4)oc3cn2)c(C(=O)O)c1`, the MIC in experiment [1] and in experiment [2] was above 128 µg/mL each time.
With `N#Cc1ccc(NC(=O)c2cc(SCc3ccccc3)on2)c(C(=O)O)c1`, the MIC in experiment [1] was 0.125 µg/mL (≈ 0.329 µM); in experiment [2], 4 µg/mL; in experiment [3] it was above 128 µg/mL; in experiment [4] it was 0.125 µg/mL (≈ 0.329 µM); in experiment [5], above 128 µg/mL.
Consider `N#Cc1ccc(NC(=O)c2ncc(-c3ccccc3)s2)c(C(=O)O)c1`, for which the MIC was 1 µg/mL (≈ 2.86 µM) in experiment [1] and 16 µg/mL in experiment [2].
As to `N#Cc1ccc(NC(=O)c2nsc(-c3ccccc3)c2Cl)c(C(=O)O)c1`, the MIC in experiment [1] was 0.5 µg/mL (≈ 1.3 µM); in experiment [2], 32 µg/mL.
`N#Cc1ccc(NC(=O)c2cnccn2)c(C(=O)O)c1`: the results for the MIC in experiment [1] and in experiment [2] were 128 µg/mL (≈ 477 µM) and above 128 µg/mL, respectively.
Consider `N#Cc1ccc(NC(=O)c2cc3ccccc3[nH]2)c(C(=O)O)c1`, for which the MIC was 2 µg/mL (≈ 6.55 µM) in experiment [1] and 32 µg/mL in experiment [2].
As for `N#Cc1ccc(NC(=O)c2nc3ccccc3s2)c(C(=O)O)c1`, the results for the MIC in experiment [1] and in experiment [2] were 0.25 µg/mL (≈ 0.773 µM) and 8 µg/mL, respectively.
With `CCCC(CCC)NS(=O)(=O)c1ccc(C(=O)Nc2cc3ccccc3cc2C(=O)O)cc1`, the MIC in experiment [1] is 64 µg/mL (≈ 137 µM); in experiment [3] it was 128 µg/mL (≈ 273 µM); in experiment [4], 16 µg/mL (≈ 34.1 µM); in experiment [5], 64 µg/mL (≈ 137 µM); in experiment [6], above 128 µg/mL; in experiment [7] it was above 128 µg/mL.
For `N#Cc1ccc(NC(=O)c2cc3ccccc3o2)c(C(=O)O)c1`, the MIC in experiment [1] stood at 2 µg/mL (≈ 6.53 µM); in experiment [2], 32 µg/mL.
In the case of `CN[C@H](CC(C)C)C(=O)N[C@H]1C(=O)N[C@@H](CC(N)=O)C(=O)N[C@H]2C(=O)N[C@H]3C(=O)N[C@H](C(=O)N[C@H](C(=O)O)c4cc(O)cc(O)c4-c4cc3ccc4O)[C@H](O)c3ccc(c(Cl)c3)Oc3cc2cc(c3O[C@@H]2O[C@H](CO)[C@@H](O)[C@H](O)[C@H]2O[C@H]2C[C@](C)(N)[C@H](O)[C@H](C)O2)Oc2ccc(cc2Cl)[C@H]1O` [VANCOMYCIN], the MIC in experiment [3] was found to be 1 µg/mL (≈ 0.69 µM); in experiment [5], 0.25 µg/mL (≈ 0.173 µM); in experiment [6] it was 0.015 µg/mL (≈ 0.0104 µM).

Source of the values: ChEMBL document CHEMBL1139189, “Preparation of novel antibacterial agents. Replacement of the central aromatic ring with heterocycles” (2007).
